These are literature values, as cited in patent US20240286999A1, “AZABICYCLO[3.1.0]HEXANE COMPOUND” (OTSUKA PHARMACEUTICAL CO., LTD., priority 2021, published 2024).

The test system of series [1] is norepinephrine reuptake (NE). The settings on record: ranking among NE, DA and 5-HT reuptake.
Another series has as its system dopamine reuptake (DA). The settings on record: relative to NE reuptake.
Series [2] concerns serotonin reuptake (5-HT). The settings on record: relative to NE reuptake.

With `c1ccc2cc([C@]34CNC[C@H]3C4)ccc2c1` [(1R,5S)-1-(naphthalen-2-yl)-3-azabicyclo[3.1.0]hexane], in series [1], the “effectiveness against norepinephrine reuptake (NE)” value was “most effective”. Further, in the series with dopamine reuptake (DA), the “effectiveness against dopamine reuptake (DA) relative to norepinephrine reuptake” value is “one-sixth as effective”. Further, the “effectiveness against serotonin reuptake (5-HT) relative to norepinephrine reuptake” value in series [2] is given as “one-fourteenth as effective”.
